Laboratory results from PMC3965624 (Life sciences, 2014).

Target: NTSR1 (Homo sapiens, UniProt P30989)
Assay: […]-Tyr3-NTS radioligand displacement on intact NCI-H1299 cells
Format: cell-based

NTSR1, sequence (P30989 whole entry): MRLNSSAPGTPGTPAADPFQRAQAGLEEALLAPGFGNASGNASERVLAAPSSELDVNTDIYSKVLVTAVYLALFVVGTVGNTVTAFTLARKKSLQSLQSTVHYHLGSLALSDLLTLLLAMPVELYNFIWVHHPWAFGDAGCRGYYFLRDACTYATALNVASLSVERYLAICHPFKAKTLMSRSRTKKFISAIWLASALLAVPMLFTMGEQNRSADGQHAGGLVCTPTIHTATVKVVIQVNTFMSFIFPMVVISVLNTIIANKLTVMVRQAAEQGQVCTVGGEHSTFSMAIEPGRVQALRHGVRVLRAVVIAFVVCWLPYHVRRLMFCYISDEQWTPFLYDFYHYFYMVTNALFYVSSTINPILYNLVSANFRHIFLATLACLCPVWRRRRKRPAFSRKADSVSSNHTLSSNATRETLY

IC50: 205 nM
SMILES: COc1cccc(OC)c1-c1cc(C(=O)NC2(C(=O)O)C3CC4CC(C3)CC2C4)nn1-c1ccnc2cc(Cl)ccc12 (stereo not shown) [SR48692]
